ChEMBL document CHEMBL5226284, “Small Molecule Inhibitors Targeting Biosynthesis of Ceramide, the Central Hub of the Sphingolipid Network” (J Med Chem, 2021)

Legend:
[1] = Non-competitive inhibition of bovine brain microsomes nSMase assessed as inhibition constant; design: species or system Bos taurus, Microsome
[2] = Inhibition of bovine brain microsomes nSMase; design: species or system Bos taurus, Microsome
[3] = Inhibition of rat liver microsome Sphingosine N-acyltransferase assessed as inhibition of [3H]sphingosine to [3H]ceramide conversion incubated for 2 hrs; type: microsomes
[4] = target: T1, Sphingolipid delta(4)-desaturase DES1 (Rattus norvegicus, UniProt Q5XIF5); test: Inhibition of rat liver microsome DES1 assessed as inhibition constant incubated for 20 mins in presence of NADH by liquid scintillation counter method; type: microsomes
T1 sequence (Q5XIF5 whole entry): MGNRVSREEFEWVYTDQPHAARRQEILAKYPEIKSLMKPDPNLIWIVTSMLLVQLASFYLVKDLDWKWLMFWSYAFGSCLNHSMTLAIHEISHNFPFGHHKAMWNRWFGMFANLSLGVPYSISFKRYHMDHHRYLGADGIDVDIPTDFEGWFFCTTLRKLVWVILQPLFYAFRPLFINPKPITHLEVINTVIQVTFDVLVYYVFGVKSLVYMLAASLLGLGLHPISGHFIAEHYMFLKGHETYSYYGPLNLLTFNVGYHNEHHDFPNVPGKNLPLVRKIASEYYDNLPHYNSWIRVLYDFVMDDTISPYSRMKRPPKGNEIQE

[5] = target: T2, Sphingolipid delta(4)-desaturase DES1 (Homo sapiens, UniProt O15121); test: Inhibition of DES1 (unknown origin)
T2 sequence (O15121 whole entry): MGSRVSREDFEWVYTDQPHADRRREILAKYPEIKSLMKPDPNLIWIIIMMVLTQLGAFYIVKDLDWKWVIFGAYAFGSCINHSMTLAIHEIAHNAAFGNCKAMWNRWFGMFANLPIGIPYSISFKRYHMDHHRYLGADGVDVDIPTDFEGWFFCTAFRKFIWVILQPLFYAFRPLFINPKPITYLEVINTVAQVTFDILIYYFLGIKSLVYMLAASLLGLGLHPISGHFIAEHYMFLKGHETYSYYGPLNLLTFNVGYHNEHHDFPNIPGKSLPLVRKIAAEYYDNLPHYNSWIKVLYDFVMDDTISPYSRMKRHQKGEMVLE

[6] = target: T1, Sphingolipid delta(4)-desaturase DES1; test: Inhibition of rat liver microsome DES1 incubated for 20 min in presence of NADH by liquid scintillation counter method; type: microsomes
[7] = target: T1, Sphingolipid delta(4)-desaturase DES1; test: Inhibition of rat liver microsome DES1 incubated for 1 hr fluorescence based analysis; type: microsomes
[8] = Inhibition of Bacillus cereus nSMase
[9] = target: Sphingomyelin phosphodiesterase (Homo sapiens, UniProt P17405); test: Inhibition of recombinant human aSMase assessed as inhibition constant
[10] = target: Sphingomyelin phosphodiesterase (Homo sapiens) (UniProt P17405); test: Inhibition of recombinant human aSMase at 5 uM relative to control
[11] = Inhibition of rat brain aSMase using HMU-PC as substrate incubated for 3 hrs by fluorescence based analysis; type: tissue-based
[12] = target: Sphingomyelinase C (Bacillus cereus) (UniProt P11889); test: Inhibition of Bacillus cereus SMaseC at 100 uM relative to control
[13] = target: T3, Sphingomyelin phosphodiesterase 2 (Rattus norvegicus, UniProt Q9ET64); test: Inhibition of rat brain nSMase; type: tissue-based
T3 sequence (Q9ET64 whole entry): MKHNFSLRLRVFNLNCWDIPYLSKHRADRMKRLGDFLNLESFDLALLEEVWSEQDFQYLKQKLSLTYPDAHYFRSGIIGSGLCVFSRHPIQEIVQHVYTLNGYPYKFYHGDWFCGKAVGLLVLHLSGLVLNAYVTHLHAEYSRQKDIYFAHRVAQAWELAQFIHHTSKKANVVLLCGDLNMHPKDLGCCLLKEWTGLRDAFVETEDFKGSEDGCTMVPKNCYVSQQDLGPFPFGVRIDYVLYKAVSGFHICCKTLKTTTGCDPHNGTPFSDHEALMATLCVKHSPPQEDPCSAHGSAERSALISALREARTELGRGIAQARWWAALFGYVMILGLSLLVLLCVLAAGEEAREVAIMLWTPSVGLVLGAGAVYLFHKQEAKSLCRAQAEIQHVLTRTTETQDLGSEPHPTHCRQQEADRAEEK

[14] = target: T2, Sphingolipid delta(4)-desaturase DES1; test: Inhibition of DES1 in human HGC-27 cell lysates; type: subcellular
[15] = target: T1, Sphingolipid delta(4)-desaturase DES1; test: Inhibition of rat liver microsome DES1 using N-octanoylsphinganine as substrate incubated for 30 mins; type: microsomes
[16] = target: T2, Sphingolipid delta(4)-desaturase DES1; test: Binding affinity to DES1 in human HGC-27 cell lysates assessed as inhibition constant; type: subcellular
Acetylcholinesterase = Acetylcholinesterase (Homo sapiens, UniProt P22303); test: Inhibition of AChe (unknown origin)
Ceramide synthase 6 = Ceramide synthase 6 (Homo sapiens, UniProt Q6ZMG9); test: Inhibition of human CerS6
Ceramide synthase 5 = Ceramide synthase 5 (Mus musculus, UniProt Q9D6K9); test: Inhibition of mouse CerS5
Ceramide synthase 2 [17] = target: T4, Ceramide synthase 2 (Homo sapiens, UniProt Q96G23); test: Inhibition of human CerS2
T4 sequence (Q96G23 whole entry): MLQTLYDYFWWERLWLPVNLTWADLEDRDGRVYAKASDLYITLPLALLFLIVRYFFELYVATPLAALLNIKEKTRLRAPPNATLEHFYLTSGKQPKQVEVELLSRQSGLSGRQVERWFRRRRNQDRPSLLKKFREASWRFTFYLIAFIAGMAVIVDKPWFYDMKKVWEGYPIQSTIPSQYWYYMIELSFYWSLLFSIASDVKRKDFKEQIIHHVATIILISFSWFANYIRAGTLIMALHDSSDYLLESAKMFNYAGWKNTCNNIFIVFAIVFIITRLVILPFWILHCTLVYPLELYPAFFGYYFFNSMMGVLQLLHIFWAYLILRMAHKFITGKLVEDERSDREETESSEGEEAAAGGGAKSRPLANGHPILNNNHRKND

Ceramide synthase 2 [18] = target: Ceramide synthase 2 (Mus musculus, UniProt Q924Z4); test: Inhibition of mouse CerS2
Ceramide synthase 4 = Ceramide synthase 4 (Homo sapiens, UniProt Q9HA82); test: Inhibition of human CerS4
[19] = Inhibition of rat plasma secretory SMase; type: cell-free
[20] = target: T3, Sphingomyelin phosphodiesterase 2; test: Inhibition of rat brain microsomes nSMase assessed as inhibition constant; design: species or system Microsome
Ceramide synthase 2 [21] = target: T4, Ceramide synthase 2; test: Inhibition of CerS2 in HPAC cells using DHSph as substrate; type: cell-based
Ceramide synthase 2 [22] = target: T4, Ceramide synthase 2; test: Competitive inhibition of CerS2 in HPAC cells using DHSph as substrate by LC/MS/MS analysis; type: cell-based
[23] = Competitive inhibition of rat brain aSMase assessed as inhibition constant; type: tissue-based
[24] = target: T2, Sphingolipid delta(4)-desaturase DES1; test: Noncompetitive inhibition of DES1 in human HGC-27 cell lysates assessed as inhibition constant; type: subcellular
[25] = Mixed type inhibition of human recombinant glucocerebrosidase at pH 4.3
[26] = Mixed type inhibition of human recombinant glucocerebrosidase at pH 5.6
[27] = Mixed type inhibition of human recombinant glucocerebrosidase at pH 6.7

Chain of Sphingomyelin phosphodiesterase (Homo sapiens) (P17405 whole entry): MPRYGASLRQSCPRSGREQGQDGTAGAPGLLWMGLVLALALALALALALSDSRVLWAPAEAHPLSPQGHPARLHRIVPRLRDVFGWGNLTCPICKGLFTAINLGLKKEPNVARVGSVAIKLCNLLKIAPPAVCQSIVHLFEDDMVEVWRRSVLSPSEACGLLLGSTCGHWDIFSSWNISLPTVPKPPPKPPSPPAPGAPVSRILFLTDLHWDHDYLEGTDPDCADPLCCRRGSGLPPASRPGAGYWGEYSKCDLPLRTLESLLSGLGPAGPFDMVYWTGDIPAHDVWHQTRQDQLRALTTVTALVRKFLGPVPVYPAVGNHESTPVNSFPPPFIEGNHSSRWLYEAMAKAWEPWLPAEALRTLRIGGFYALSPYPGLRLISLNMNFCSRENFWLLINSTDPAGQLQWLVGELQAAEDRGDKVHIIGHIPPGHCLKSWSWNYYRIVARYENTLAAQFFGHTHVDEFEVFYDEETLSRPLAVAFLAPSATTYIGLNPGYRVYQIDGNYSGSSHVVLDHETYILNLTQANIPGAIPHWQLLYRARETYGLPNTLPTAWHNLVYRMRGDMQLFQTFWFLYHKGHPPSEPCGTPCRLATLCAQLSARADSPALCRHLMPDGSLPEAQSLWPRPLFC
Chain of Sphingomyelin phosphodiesterase (P17405 whole entry): as above
Chain of Ceramide synthase 4 (Q9HA82 whole entry): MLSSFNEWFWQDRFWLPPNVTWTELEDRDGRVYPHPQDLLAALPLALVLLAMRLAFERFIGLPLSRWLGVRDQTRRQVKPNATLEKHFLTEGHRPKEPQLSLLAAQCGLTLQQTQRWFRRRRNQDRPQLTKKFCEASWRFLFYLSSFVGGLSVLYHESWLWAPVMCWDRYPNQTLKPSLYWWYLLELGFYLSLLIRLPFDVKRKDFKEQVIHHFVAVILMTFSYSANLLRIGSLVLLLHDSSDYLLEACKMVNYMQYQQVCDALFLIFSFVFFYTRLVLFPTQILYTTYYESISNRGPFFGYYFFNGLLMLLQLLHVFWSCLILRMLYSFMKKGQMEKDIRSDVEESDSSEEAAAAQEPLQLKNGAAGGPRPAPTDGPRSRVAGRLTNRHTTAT
Chain of Acetylcholinesterase (P22303 whole entry): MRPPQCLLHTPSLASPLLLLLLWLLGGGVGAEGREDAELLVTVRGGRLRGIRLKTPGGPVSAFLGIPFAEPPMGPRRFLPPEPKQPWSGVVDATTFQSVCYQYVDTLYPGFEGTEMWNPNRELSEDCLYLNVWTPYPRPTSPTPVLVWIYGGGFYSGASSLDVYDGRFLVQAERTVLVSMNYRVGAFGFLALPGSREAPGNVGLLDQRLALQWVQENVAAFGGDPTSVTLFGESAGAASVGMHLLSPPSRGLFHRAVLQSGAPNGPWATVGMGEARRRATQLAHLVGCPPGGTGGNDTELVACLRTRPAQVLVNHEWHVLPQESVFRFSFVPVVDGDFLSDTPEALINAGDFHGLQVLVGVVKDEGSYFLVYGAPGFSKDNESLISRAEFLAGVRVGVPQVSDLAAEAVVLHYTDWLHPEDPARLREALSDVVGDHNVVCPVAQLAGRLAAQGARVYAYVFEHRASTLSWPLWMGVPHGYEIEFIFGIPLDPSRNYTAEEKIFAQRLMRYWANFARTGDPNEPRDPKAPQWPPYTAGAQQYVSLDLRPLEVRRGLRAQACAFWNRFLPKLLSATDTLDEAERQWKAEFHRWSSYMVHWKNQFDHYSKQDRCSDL
Chain of Ceramide synthase 5 (Q9D6K9 whole entry): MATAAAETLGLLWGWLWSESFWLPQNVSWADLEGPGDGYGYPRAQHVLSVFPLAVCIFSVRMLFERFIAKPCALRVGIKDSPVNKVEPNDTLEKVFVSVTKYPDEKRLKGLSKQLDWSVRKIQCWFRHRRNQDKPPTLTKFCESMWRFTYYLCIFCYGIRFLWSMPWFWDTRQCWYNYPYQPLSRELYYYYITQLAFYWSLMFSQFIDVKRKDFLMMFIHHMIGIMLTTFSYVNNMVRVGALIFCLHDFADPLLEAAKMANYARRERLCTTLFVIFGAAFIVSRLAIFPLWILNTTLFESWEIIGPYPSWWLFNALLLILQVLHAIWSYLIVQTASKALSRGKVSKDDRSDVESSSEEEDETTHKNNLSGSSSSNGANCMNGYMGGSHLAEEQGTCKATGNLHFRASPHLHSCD
Chain of Sphingomyelinase C (Bacillus cereus) (P11889 whole entry): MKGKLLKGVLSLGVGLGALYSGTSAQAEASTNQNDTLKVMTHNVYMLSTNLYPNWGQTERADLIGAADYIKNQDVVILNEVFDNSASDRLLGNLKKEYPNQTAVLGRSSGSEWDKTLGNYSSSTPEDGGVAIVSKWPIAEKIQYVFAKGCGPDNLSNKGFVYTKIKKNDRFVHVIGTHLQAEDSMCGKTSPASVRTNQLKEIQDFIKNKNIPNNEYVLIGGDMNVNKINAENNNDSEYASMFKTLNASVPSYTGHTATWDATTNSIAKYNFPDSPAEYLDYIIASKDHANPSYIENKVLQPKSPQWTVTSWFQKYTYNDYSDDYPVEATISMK
Chain of Ceramide synthase 6 (Q6ZMG9 whole entry): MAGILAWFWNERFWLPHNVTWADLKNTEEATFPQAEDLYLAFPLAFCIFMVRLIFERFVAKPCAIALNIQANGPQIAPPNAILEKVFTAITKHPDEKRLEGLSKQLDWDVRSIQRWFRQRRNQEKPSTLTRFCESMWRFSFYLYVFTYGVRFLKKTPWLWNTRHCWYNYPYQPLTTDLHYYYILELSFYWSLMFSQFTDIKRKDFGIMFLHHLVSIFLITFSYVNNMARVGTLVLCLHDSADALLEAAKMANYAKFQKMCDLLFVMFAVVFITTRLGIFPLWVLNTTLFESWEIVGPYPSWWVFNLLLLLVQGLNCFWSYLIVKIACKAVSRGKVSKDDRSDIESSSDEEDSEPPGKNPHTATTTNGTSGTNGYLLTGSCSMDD
Chain of Ceramide synthase 2 (Mus musculus, UniProt Q924Z4) (Q924Z4 whole entry): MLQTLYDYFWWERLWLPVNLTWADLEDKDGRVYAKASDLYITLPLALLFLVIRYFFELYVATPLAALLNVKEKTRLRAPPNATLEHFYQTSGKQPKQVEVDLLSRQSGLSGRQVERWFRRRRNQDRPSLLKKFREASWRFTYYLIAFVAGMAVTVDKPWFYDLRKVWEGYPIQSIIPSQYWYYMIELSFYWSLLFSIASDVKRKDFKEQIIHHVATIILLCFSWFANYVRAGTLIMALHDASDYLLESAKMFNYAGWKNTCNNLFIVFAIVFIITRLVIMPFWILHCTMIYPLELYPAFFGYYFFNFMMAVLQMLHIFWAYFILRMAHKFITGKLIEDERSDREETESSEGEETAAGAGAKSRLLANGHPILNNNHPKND

CCCCCCCCCCCCCCCC(=O)N[C@H](CC(F)(F)P(=O)(O)O)[C@@H](O)c1ccccc1
Ki [1]: 1.6 µM | IC50 [2]: 3.3 µM

CCCC[C@@H](C)[C@@H](OC(=O)C[C@@H](CC(=O)O)C(=O)O)[C@H](C[C@@H](C)C[C@H](O)CCCC[C@@H](O)C[C@H](O)[C@H](C)N)OC(=O)C[C@@H](CC(=O)O)C(=O)O
IC50 [3]: 0.1 µM

CC1=C(/C=C/C(C)=C/C=C/C(C)=C/C(=O)Nc2ccc(O)cc2)C(C)(C)CCC1 [FENRETINIDE]
Ki [4]: 8.28 µM | IC50 [5]: 0.1 µM | IC50 [6]: 2.32 µM

CCCCCCCCCCCCCSC[C@@H](O)[C@H](CO)NC(=O)CCCCCCC
IC50 [7]: 8.2 µM

O=c1[nH]c(=S)[nH]c(-c2ccccc2)c1Cc1c(O)ccc2ccccc12 [CAMBINOL]
IC50 [8]: 5 µM

CCCCCCCC(=O)OC[C@H](COP(=O)(O)O[C@@H]1[C@H](O)[C@H](OP(=O)(O)O)[C@@H](O)[C@H](OP(=O)(O)O)[C@H]1O)OC(=O)CCCCCCC
Ki [9]: 0.53 µM | inhibition [10]: > 90% | IC50 [11]: 0.93 µM

CCCCCCCCCCCCC/C=C/[C@@H](OCc1cccc(-c2ccccn2)n1)[C@H](CO)NC(=O)CCCCC
inhibition [12]: 20%

O=C(/C=C/c1ccc(/C=C/C(=O)Nc2ccc(C3=NCCN3)cc2)cc1)Nc1ccc(C2=NCCN2)cc1
IC50 [13]: 1 µM

CCCCCCCCCCCCCC1=C([C@@H](O)[C@H](CO)NC(=O)CCCCCCC)C1
IC50 [14]: 0.052 µM | Ki [15]: 6 µM | Ki [16]: 0.022 µM

CN1c2ccc(OC(=O)Nc3ccncc3)cc2[C@]2(C)CCO[C@H]12
IC50 (Acetylcholinesterase): 7 µM

C[C@@](N)(CO)CCc1ccc(OCc2ccc(Cl)c(Cl)c2)cc1
IC50 (Ceramide synthase 6): 7 µM | IC50 (Ceramide synthase 5): 7 µM | IC50 (Ceramide synthase 2 [17]): 7 µM | IC50 (Ceramide synthase 2 [18]): 7 µM | IC50 (Ceramide synthase 4): 7 µM

COc1cc([C@H]2Oc3cc(O)cc(O)c3C[C@H]2OC(=O)c2cc(O)c(O)c(O)c2)cc(O)c1O
IC50 [19]: 1.7 µM

COc1cc(O)c(C(=O)O)c(-c2cc(O)c(O)cc2C)c1 [ALTENUSIN]
Ki [20]: 20 µM

CCCCCCCCc1ccc(CCC(N)(CO)CO)cc1 [FINGOLIMOD]
IC50 (Ceramide synthase 2 [21]): 6.4 µM | Ki (Ceramide synthase 2 [22]): 2.15 µM

CCCCCCCCCCCCOS(=O)(=O)O[C@@H]1[C@H](O)[C@H](OP(=O)(O)O)[C@@H](O)[C@H](OP(=O)(O)O)[C@H]1O
Ki [23]: 0.42 µM | IC50 [11]: 0.9 µM

Oc1ccc(Nc2nc(-c3ccc(Cl)cc3)cs2)cc1
Ki [24]: 0.3 µM

Nc1c(Br)cc(Br)cc1CN[C@H]1CC[C@H](O)CC1 [AMBROXOL]
IC50 [25]: > 1100 µM | IC50 [26]: 31 µM | IC50 [27]: 8.1 µM
